In patent publication US9834558B2, “Substituted bridged urea analogs as sirtuin modulators” (GLAXOSMITHKLINE LLC, priority 2013, dated 2017):
Values belong to the compound of their own block, whether it stands above or below them.

Target: T1, SIRT1 (Homo sapiens, UniProt Q96EB6)
T1 sequence (Q96EB6 1-747): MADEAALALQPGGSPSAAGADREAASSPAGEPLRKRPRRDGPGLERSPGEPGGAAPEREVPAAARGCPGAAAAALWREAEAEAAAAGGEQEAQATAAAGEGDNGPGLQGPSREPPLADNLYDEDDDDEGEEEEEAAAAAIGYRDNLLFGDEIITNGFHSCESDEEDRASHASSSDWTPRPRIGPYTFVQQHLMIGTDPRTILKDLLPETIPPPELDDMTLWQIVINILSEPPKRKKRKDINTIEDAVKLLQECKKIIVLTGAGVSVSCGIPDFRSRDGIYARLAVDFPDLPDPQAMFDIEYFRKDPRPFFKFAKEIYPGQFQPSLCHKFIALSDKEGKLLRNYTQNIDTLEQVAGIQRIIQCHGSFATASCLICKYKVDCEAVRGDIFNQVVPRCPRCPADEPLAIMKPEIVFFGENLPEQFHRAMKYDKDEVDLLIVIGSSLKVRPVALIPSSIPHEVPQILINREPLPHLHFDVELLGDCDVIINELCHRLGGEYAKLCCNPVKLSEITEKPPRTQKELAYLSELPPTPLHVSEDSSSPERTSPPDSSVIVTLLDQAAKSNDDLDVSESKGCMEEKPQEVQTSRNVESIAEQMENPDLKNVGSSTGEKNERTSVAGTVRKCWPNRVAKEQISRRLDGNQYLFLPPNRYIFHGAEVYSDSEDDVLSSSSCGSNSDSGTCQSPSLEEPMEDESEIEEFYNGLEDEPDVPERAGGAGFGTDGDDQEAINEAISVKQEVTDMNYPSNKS
Experiment: Trp mass spectrometry assay of SIRT1 activation
Assay type: biochemical
Conditions: for TRP Activity (EC1.5): EC1.5 = concentration that results in 150% activation of SIRT1; for Emax: read-out: TRP MAX RESP (percent maximum fold activation)
Outline: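 Activation read-out: mass-spec measurement of O-acetyl-ADP-ribose or deacetylated Trp peptide versus compound-free controls, giving EC1.5 and Percent Maximum Activation. Reactions ran 25 min at 25 °C, pH 7.5, with 120 μM βNAD+, 0.5 μM acetylated p53-derived peptide and 10 nM His-tagged SIRT1.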

[1] = Trp mass spectrometry assay, concentration of test compound giving 150% activation of SIRT1
[2] = concentration giving 150% activation of SIRT1, Trp peptide substrate
[3] = Trp peptide assay, maximum activity relative to control (100%)
[4] = Trp mass spectrometry assay, EC1.5 = concentration of test compound that results in 150% activation of SIRT1

Structure (SMILES): COc1cc(NC(=O)N2c3nc(-c4cccc(N(C)C)c4)ccc3N3CCC[C@H]2C3)ncn1 [Example 385]
Tryp AVG EC1.5 (μM) [1]: A (A (EC1.5<1 μM))

Structure (SMILES): Cc1cncc(NC(=O)N2c3nc(-c4cccc(Cl)c4)ccc3N3C[C@@H](O)[C@H]2C3)c1 [Example 677]
Tryp AVG EC1.5 (μM) [2]: B (B (EC1.5 1-25 μM))

Structure (SMILES): O=C(Nc1ccccn1)N1c2nc(-c3cncc(F)c3)ccc2N2CC[C@H]1C2 [Example 374]
Tryp AVG EC1.5 (μM) [1]: B (B (EC1.5 1-25 μM))

Structure (SMILES): C#CCOc1cccc(NC(=O)N2c3nc(-c4cccc(C5(C(F)(F)F)N=N5)c4)ccc3N3CC[C@H]2C3)c1 [Example 797]
Tryp AVG EC1.5 (μM) [2]: A (A (EC1.5<1 μM))

Structure (SMILES): Cc1cc(-c2ccc3c(n2)N(C(=O)Nc2cnn(C)c2)[C@H]2CCCN3C2)ccn1 [(9S)-N-(1-methyl-1H-pyrazol-4-yl)-5-(2-methylpyridin-4-yl)-1,6,8-triazatricyclo[7.3.1.0 {2,7}]trideca-2(7),3,5-triene-8-carboxamide]
TRP Activity (EC1.5) (Trp peptide assay): B (B (EC1.5 1-25 μM)) | Emax [3]: > 150%

Structure (SMILES): N#Cc1cncc(-c2ccc3c(n2)N(C(=O)Nc2cncc(F)c2)[C@H]2CCCN3C2)c1 [Example 535]
Tryp AVG EC1.5 (μM) [4]: B (B (EC1.5 1-25 μM))

Structure (SMILES): O=C(Nc1cccc(-c2cnco2)n1)N1c2nc(-c3cncc(F)c3)ccc2N2CC[C@H]1C2 [Example 739]
Tryp AVG EC1.5 (μM) [2]: A (A (EC1.5<1 μM))

Structure (SMILES): O=C(Nc1ccc(F)cn1)N1c2nc(N3CCC[C@H](C(F)(F)F)C3)ccc2N2CCC[C@H]1C2 [drawing 1208, (9S)-N-(5-fluoropyridin-2-yl)-5-[(3S)-3-(trifluoromethyl)piperidin-1-yl]-1,6,8-triazatricyclo[7.3.1.0 {2,7}]trideca-2(7),3,5-triene-8-carboxamide]
TRP Activity (EC1.5) (Trp peptide assay): B (B (EC1.5 1-25 μM)) | TRP MAX RESP (percent maximum fold activation) [3]: A (A (Fold activation ≧150%))

Structure (SMILES): O=C(Nc1cncc(F)c1)N1c2nc(-c3cccc(Cl)c3)ccc2N2CCC1CC2 [Example 521]
Tryp AVG EC1.5 (μM) [4]: B (B (EC1.5 1-25 μM))

Structure (SMILES): Cc1nc(NC(=O)N2c3nc(-c4cncc(F)c4)ccc3N3CCC[C@H]2C3)sc1C [Example 471]
Tryp AVG EC1.5 (μM) [4]: B (B (EC1.5 1-25 μM))

Structure (SMILES): Cc1nc(NC(=O)N2c3nc(-c4cccc(N5CCOCC5)c4)ccc3N3CCC[C@H]2C3)sc1C [Example 537]
Tryp AVG EC1.5 (μM) [4]: B (B (EC1.5 1-25 μM))

Structure (SMILES): CC(C)(C)OC(=O)NCC#Cc1ccc(NC(=O)N2c3nc(-c4cccc(C(F)(F)F)c4)ccc3N3CCC[C@H]2C3)cc1-c1cnco1 [Example 753]
Tryp AVG EC1.5 (μM) [2]: A (A (EC1.5<1 μM))

Structure (SMILES): CC(C)(C)OC(=O)NCCNC(=N)c1ccc(NC(=O)N2c3nc(-c4cccc(C(F)(F)F)c4)ccc3N3CCC[C@H]2C3)cc1 [Example 788]
Tryp AVG EC1.5 (μM) [2]: A (A (EC1.5<1 μM))

Structure (SMILES): COc1cncc(-c2ccc3c(n2)N(C(=O)Nc2ccccn2)[C@H]2CCN3C2)c1 [Example 346]
Tryp AVG EC1.5 (μM) [1]: B (B (EC1.5 1-25 μM))

Structure (SMILES): O=C(Nc1cccc(-c2cnco2)n1)N1c2nc(-c3cccc(C(F)(F)F)c3)ccc2N2C[C@@H](O)[C@H]1C2 [Example 698]
Tryp AVG EC1.5 (μM) [2]: A (A (EC1.5<1 μM))

Structure (SMILES): Cc1cc(-c2ccc3c(n2)N(C(=O)Nc2ccc4c(cnn4C)c2)[C@H]2CCN3C2)ccn1 [Example 502]
Tryp AVG EC1.5 (μM) [4]: A (A (EC1.5<1 μM))

Structure (SMILES): CC(C)n1cc(-c2ccc3c(n2)N(C(=O)Nc2cccnc2)[C@H]2CCN3C2)cn1 [Example 494]
Tryp AVG EC1.5 (μM) [4]: B (B (EC1.5 1-25 μM))

Structure (SMILES): O=C(Nc1cccnn1)N1c2nc(-c3cccc(Cl)c3)ccc2N2C[C@@H](O)[C@H]1C2 [Example 682]
Tryp AVG EC1.5 (μM) [2]: B (B (EC1.5 1-25 μM))

Structure (SMILES): COc1cc(NC(=O)N2c3nc(-c4ccnc(F)c4)ccc3N3CC[C@H]2C3)ncn1 [Example 358]
Tryp AVG EC1.5 (μM) [1]: C (C (EC1.5>25 μM))

Structure (SMILES): CS(=O)(=O)c1cncc(-c2ccc3c(n2)N(C(=O)Nc2ccccn2)[C@H]2CCCN3C2)c1 [Example 375]
Tryp AVG EC1.5 (μM) [1]: A (A (EC1.5<1 μM))

Structure (SMILES): O=C(Nc1ccccn1)N1c2nc(-c3cccc(N4CCOCC4)c3)ccc2N2CCC[C@H]1C2 [Example 536]
Tryp AVG EC1.5 (μM) [4]: B (B (EC1.5 1-25 μM))

Structure (SMILES): COc1cc(NC(=O)N2c3nc(-c4cncc(Cl)c4)ccc3N3CCC2CC3)ncn1 [Example 552]
Tryp AVG EC1.5 (μM) [4]: C (C (EC1.5>25 μM))

Structure (SMILES): O=C(Nc1ccccn1)N1c2nc(-c3cccnc3)ccc2N2CCC[C@H]1C2 [Example 441]
Tryp AVG EC1.5 (μM) [4]: B (B (EC1.5 1-25 μM))

Structure (SMILES): O=C(Nc1ccccn1)N1c2nc(N3CCC(C(F)(F)F)CC3)ccc2N2CC[C@H]1C2 [(9S)-N-(pyridin-2-yl)-5-[4-(trifluoromethyl)piperidin-1-yl]-1,6,8-triazatricyclo[7.2.1.0 {2,7}]dodeca-2,4,6-triene-8-carboxamide]
TRP Activity (EC1.5) (Trp peptide assay): A (A (EC1.5<1 μM)) | Emax [3]: > 150%

Structure (SMILES): Cc1cncc(-c2ccc3c(n2)N(C(=O)Nc2cccnn2)[C@H]2CCCN3C2)c1 [Example 519]
Tryp AVG EC1.5 (μM) [4]: A (A (EC1.5<1 μM))

Structure (SMILES): COc1cncc(NC(=O)N2c3nc(-c4ccnc(C)c4)ccc3N3CC[C@H]2C3)n1 [Example 499]
Tryp AVG EC1.5 (μM) [4]: A (A (EC1.5<1 μM))

Structure (SMILES): CN(C)Cc1cccc(-c2ccc3c(n2)N(C(=O)Nc2ccccn2)[C@H]2CCN3C2)c1 [Example 343]
Tryp AVG EC1.5 (μM) [1]: B (B (EC1.5 1-25 μM))

Structure (SMILES): Cc1cc(-c2ccc3c(n2)N(C(=O)Nc2cccnn2)[C@H]2CCCN3C2)ccn1 [(9S)-5-(2-methylpyridin-4-yl)-N-(pyridazin-3-yl)-1,6,8-triazatricyclo[7.3.1.0 {2,7}]trideca-2(7),3,5-triene-8-carboxamide]
TRP Activity (EC1.5) (Trp peptide assay): A (A (EC1.5<1 μM)) | Emax [3]: > 150%

Structure (SMILES): O=C(Nc1cnccn1)N1c2nc(-c3cc(F)c(F)c(F)c3)ccc2N2CC[C@H]1C2 [Example 416]
Tryp AVG EC1.5 (μM) [1]: C (C (EC1.5>25 μM))

Further lines, results first:

Tryp AVG EC1.5 (μM) [2]: A (A (EC1.5<1 μM))
Structure (SMILES): O=C(Nc1ccccn1)N1c2nc(-c3cccc(C(F)(F)F)c3)ccc2N2CC[C@@H]1C2 [Example 823]

TRP Activity (EC1.5) (Trp peptide assay): A (A (EC1.5<1 μM)) | Emax [3]: > 150%
Structure (SMILES): O=C(Nc1ccnc(O[C@@H]2CCOC2)n1)N1c2nc(-c3cccc(C(F)(F)F)c3)ccc2N2CC[C@H]1C2 [(9S)-N-{2-[(3R)-oxolan-3-yloxy]pyrimidin-4-yl}-5-[3-(trifluoromethyl)phenyl]-1,6,8-triazatricyclo[7.2.1.0 {2,7}]dodeca-2(7),3,5-triene-8-carboxamide]

Tryp AVG EC1.5 (μM) [2]: A (A (EC1.5<1 μM))
Structure (SMILES): O=C(Nc1nnc(-c2cccnc2)s1)N1c2nc(-c3cccc(C(F)(F)F)c3)ccc2N2CC[C@H]1C2 [Example 651]

Tryp AVG EC1.5 (μM) [2]: A (A (EC1.5<1 μM))
Structure (SMILES): O=C(Nc1ccncc1)N1c2nc(-c3cccc(C(F)(F)F)c3)ccc2N2CC[C@@H]1C2 [Example 824]

Tryp AVG EC1.5 (μM) [4]: A (A (EC1.5<1 μM))
Structure (SMILES): O=C(Nc1cccc(-c2cnco2)n1)N1c2nc(-c3cccc(C(F)(F)F)c3)ccc2N2CC[C@H]1C2 [Example 588]

Tryp AVG EC1.5 (μM) [4]: B (B (EC1.5 1-25 μM))
Structure (SMILES): CC(C)(C)OC(=O)N1CCc2ccc(NC(=O)N3c4nc(-c5cccc(C(F)(F)F)c5)ccc4N4CC[C@H]3C4)cc2C1 [Example 609]

Tryp AVG EC1.5 (μM) [4]: B (B (EC1.5 1-25 μM))
Structure (SMILES): Cc1cc(-c2ccc3c(n2)N(C(=O)Nc2ccncn2)[C@H]2CCN3C2)ccn1 [Example 468]

Tryp AVG EC1.5 (μM) [2]: A (A (EC1.5<1 μM))
Structure (SMILES): [N-]=[N+]=NCC(=O)NCc1ccc(NC(=O)N2c3nc(-c4cccc(C(F)(F)F)c4)ccc3N3CC[C@H]2C3)cc1 [Example 799]

Tryp AVG EC1.5 (μM) [4]: B (B (EC1.5 1-25 μM))
Structure (SMILES): O=C(Nc1cccc(-c2ccc(C(F)(F)F)cn2)c1)N1c2nc(-c3cccc(C(F)(F)F)c3)ccc2N2CC[C@H]1C2 [Example 618]

Tryp AVG EC1.5 (μM) (Trp peptide substrate, concentration giving 150% activation of SIRT1): A (A (EC1.5<1 μM))
Structure (SMILES): O=C(Nc1cccc2nccnc12)N1c2nc(-c3cccc(C(F)(F)F)c3)ccc2N2CC[C@H]1C2 [Example 83]

Tryp AVG EC1.5 (μM) [2]: A (A (EC1.5<1 μM))
Structure (SMILES): CS(=O)(=O)Nc1cccc(NC(=O)N2c3nc(-c4cccc(C(F)(F)F)c4)ccc3N3CC[C@H]2C3)c1 [Example 642]

Tryp AVG EC1.5 (μM) [4]: A (A (EC1.5<1 μM))
Structure (SMILES): O=C(Nc1cccc(-c2cnco2)n1)N1c2nc(-c3cccc(C(F)(F)F)c3)ccc2N2CCC[C@H]1C2 [Example 590]

TRP Activity (EC1.5) (Trp peptide assay): C (C (EC1.5>25 μM)) | Emax [3]: < 150%
Structure (SMILES): Cc1cc(-c2ccc3c(n2)N(C(=O)Nc2cnc(C(F)(F)F)cn2)[C@H]2CCN3C2)ccn1 [(9S)-5-(2-methylpyridin-4-yl)-N-[5-(trifluoromethyl)pyrazin-2-yl]-1,6,8-triazatricyclo[7.2.1.0 {2,7}]dodeca-2(7),3,5-triene-8-carboxamide]

Tryp AVG EC1.5 (μM) [2]: C (C (EC1.5>25 μM))
Structure (SMILES): O=C(Nc1nnc(C(F)(F)F)s1)N1c2nc(-c3cccc(C(F)(F)F)c3)ccc2N2CC[C@H]1C2 [Example 650]

Tryp AVG EC1.5 (μM) [4]: B (B (EC1.5 1-25 μM))
Structure (SMILES): O=C(Nc1ccccn1)N1c2nc(-c3ccnc(N4CC[C@@H](F)C4)c3)ccc2N2CC[C@H]1C2 [Example 448]
